# Source: BindingDB's records for patent US12473263 (Icahn School Of Medicine At Mount Sinai, 2025)
# Molecular target: T1, Bromodomain-containing protein 4 [58-164] (Homo sapiens, UniProt O60885)
# T1 construct: 58-164
# Test: Fluorescence Anisotropy Binding Assay
# Description: Binding affinity of the newly synthesized compounds to the BRD4 BrD1 was assessed in a fluorescence anisotropy assay using a fluorescein isothiocyanate (FITC)-labeled MS417 as an assay probe (Zhang et al. 2008 op.cit.). Competition binding was performed with a BrD protein (0.25 to 1 μM) and the fluorescent probe (80 nM), and increasing concentration of unlabeled competing ligand in a PBS buffer (pH 7.4) in total volume of 80 μL. Measurements were obtained after 1 hour incubation of the fluorescent ligand and the protein at 25° C. with Safire 2 microplate reader (Tecan). In the assay, fluorescent ligand concentration was ≤2Kd, and protein concentration was set at which 50-80% of fluorescent ligand is bound. Dissociation constant of a competing ligand was calculated with the correction to Cheng-Prussoff equation introduced by Nicolovska-Coleska and colleagues [Nikolovska-Coleska, Z. et al., Anal Biochem 332, 261-273 (2004).
row,SMILES,Kd
1,"N=c1n(Cc2cn(-c3ccccc3)nn2)c2ccccc2n1CC(O)c1ccc(Cl)c(Cl)c1 (stereo unspecified) [US12473263, Example 13]",65 nM
2,"N=c1n(Cc2cn(Cc3ccc(F)cc3)nn2)c2ccccc2n1CC(O)c1ccc(Cl)c(Cl)c1 (stereo unspecified) [US12473263, Example 12]",3860 nM
3,"N=c1n(Cc2cn(Cc3cccc(F)c3)nn2)c2ccccc2n1CC(O)c1ccc(Cl)c(Cl)c1 (stereo unspecified) [US12473263, Example 11]",548 nM
4,"COc1ccc2c(c1)n(Cc1ccccc1C)c(=N)n2CC(O)c1ccc(Cl)c(Cl)c1 (stereo unspecified) [US12473263, Example 1]",694 nM
5,"N=c1n(Cc2cn(CCc3ccccc3)nn2)c2ccccc2n1CC(O)c1ccc(Cl)c(Cl)c1 (stereo unspecified) [US12473263, Example 15]",354 nM

# More lines, in order of falling Kd, values ahead:
row,Kd,SMILES
1,640 nM,"Cc1ccccc1Cc1cn(C[C@H](O)c2ccc(Cl)c(Cl)c2)c2ccccc12 [US12473263, Example 4]"
2,556 nM,"Cc1cccc(Cn2cc(Cn3c(=N)n(CC(O)c4ccc(Cl)c(Cl)c4)c4ccccc43)nn2)c1 (stereo unspecified) [US12473263, Example 8]"
3,551 nM,"Cc1ccccc1Cn1cc(Cn2c(=N)n(CC(O)c3ccc(Cl)c(Cl)c3)c3ccccc32)nn1 (stereo unspecified) [US12473263, Example 7]"
4,503 nM,"Cc1ccccc1Cn1c(=N)n(CC(O)c2ccc(Cl)c(Cl)c2)c2ccc(Cl)cc21 (stereo unspecified) [US12473263, Example 3]"
5,371 nM,"N=c1n(Cc2cn(Cc3ccccc3F)nn2)c2ccccc2n1CC(O)c1ccc(Cl)c(Cl)c1 (stereo unspecified) [US12473263, Example 10]"
6,269 nM,"Cc1ccccc1Cn1c(=N)n(CC(O)c2ccc(Cl)c(Cl)c2)c2ccc(F)cc21 (stereo unspecified) [US12473263, Example 2]"
